# From BigSolDB 2.1
smiles,measurement,setting,value
CN(C)CCC=C1c2ccccc2CCc2ccccc21.Cl,solubility (mole fraction),"in 2-butoxyethanol, 278.15 K",0.0451
same,solubility (mole fraction),"in 2-butoxyethanol, 283.15 K",0.0494
same,solubility (mole fraction),"in 2-butoxyethanol, 288.15 K",0.0531
same,solubility (mole fraction),"in 2-butoxyethanol, 293.15 K",0.0595
same,solubility (mole fraction),"in 2-butoxyethanol, 298.15 K",0.066
same,solubility (mole fraction),"in 2-butoxyethanol, 303.15 K",0.0722
same,solubility (mole fraction),"in 2-butoxyethanol, 308.15 K",0.0793
same,solubility (mole fraction),"in 2-butoxyethanol, 313.15 K",0.0864
same,solubility (mole fraction),"in 2-butoxyethanol, 318.15 K",0.0942
same,solubility (mole fraction),"in 2-butoxyethanol, 323.15 K",0.102
same,solubility (mole fraction),"in 2-ethoxyethanol, 278.15 K",0.084
same,solubility (mole fraction),"in 2-ethoxyethanol, 283.15 K",0.0895
same,solubility (mole fraction),"in 2-ethoxyethanol, 288.15 K",0.0954
same,solubility (mole fraction),"in 2-ethoxyethanol, 293.15 K",0.101
same,solubility (mole fraction),"in 2-ethoxyethanol, 298.15 K",0.108
same,solubility (mole fraction),"in 2-ethoxyethanol, 303.15 K",0.115
same,solubility (mole fraction),"in 2-ethoxyethanol, 308.15 K",0.123
same,solubility (mole fraction),"in 2-ethoxyethanol, 313.15 K",0.132
same,solubility (mole fraction),"in 2-ethoxyethanol, 318.15 K",0.141
same,solubility (mole fraction),"in 2-ethoxyethanol, 323.15 K",0.151
same,solubility (mole fraction),"in 2-methoxyethanol, 278.15 K",0.127
same,solubility (mole fraction),"in 2-methoxyethanol, 283.15 K",0.132
same,solubility (mole fraction),"in 2-methoxyethanol, 288.15 K",0.138
same,solubility (mole fraction),"in 2-methoxyethanol, 293.15 K",0.143
same,solubility (mole fraction),"in 2-methoxyethanol, 298.15 K",0.149
same,solubility (mole fraction),"in 2-methoxyethanol, 303.15 K",0.155
same,solubility (mole fraction),"in 2-methoxyethanol, 308.15 K",0.162
same,solubility (mole fraction),"in 2-methoxyethanol, 313.15 K",0.169
same,solubility (mole fraction),"in 2-methoxyethanol, 318.15 K",0.177
same,solubility (mole fraction),"in 2-methoxyethanol, 323.15 K",0.185
same,solubility (mole fraction),"in 2-propoxyethanol, 278.15 K",0.06
same,solubility (mole fraction),"in 2-propoxyethanol, 283.15 K",0.0641
same,solubility (mole fraction),"in 2-propoxyethanol, 288.15 K",0.0686
same,solubility (mole fraction),"in 2-propoxyethanol, 293.15 K",0.075
same,solubility (mole fraction),"in 2-propoxyethanol, 298.15 K",0.0814
same,solubility (mole fraction),"in 2-propoxyethanol, 303.15 K",0.0881
same,solubility (mole fraction),"in 2-propoxyethanol, 308.15 K",0.0955
same,solubility (mole fraction),"in 2-propoxyethanol, 313.15 K",0.103
same,solubility (mole fraction),"in 2-propoxyethanol, 318.15 K",0.111
same,solubility (mole fraction),"in 2-propoxyethanol, 323.15 K",0.119
same,solubility (mole fraction),"in DMF, 278.15 K",0.0295
same,solubility (mole fraction),"in DMF, 283.15 K",0.0323
same,solubility (mole fraction),"in DMF, 288.15 K",0.0354
same,solubility (mole fraction),"in DMF, 293.15 K",0.0388
same,solubility (mole fraction),"in DMF, 298.15 K",0.0423
same,solubility (mole fraction),"in DMF, 303.15 K",0.0466
same,solubility (mole fraction),"in DMF, 308.15 K",0.0509
same,solubility (mole fraction),"in DMF, 313.15 K",0.0557
same,solubility (mole fraction),"in DMF, 318.15 K",0.0611
same,solubility (mole fraction),"in DMF, 323.15 K",0.0674
same,solubility (mole fraction),"in NMP, 278.15 K",0.0311
same,solubility (mole fraction),"in NMP, 283.15 K",0.0342
same,solubility (mole fraction),"in NMP, 288.15 K",0.0372
same,solubility (mole fraction),"in NMP, 293.15 K",0.0412
same,solubility (mole fraction),"in NMP, 298.15 K",0.0448
same,solubility (mole fraction),"in NMP, 303.15 K",0.0492
same,solubility (mole fraction),"in NMP, 308.15 K",0.0543
same,solubility (mole fraction),"in NMP, 313.15 K",0.0594
same,solubility (mole fraction),"in NMP, 318.15 K",0.0652
same,solubility (mole fraction),"in NMP, 323.15 K",0.0716
same,solubility (mole fraction),"in ethanol, 278.15 K",0.0337
same,solubility (mole fraction),"in ethanol, 283.15 K",0.0423
same,solubility (mole fraction),"in ethanol, 288.15 K",0.0528
same,solubility (mole fraction),"in ethanol, 293.15 K",0.0653
same,solubility (mole fraction),"in ethanol, 298.15 K",0.0794
same,solubility (mole fraction),"in ethanol, 303.15 K",0.0938
same,solubility (mole fraction),"in ethanol, 308.15 K",0.108
same,solubility (mole fraction),"in ethanol, 313.15 K",0.122
same,solubility (mole fraction),"in ethanol, 318.15 K",0.136
same,solubility (mole fraction),"in ethanol, 323.15 K",0.148
same,solubility (mole fraction),"in methanol, 278.15 K",0.144
same,solubility (mole fraction),"in methanol, 283.15 K",0.152
same,solubility (mole fraction),"in methanol, 288.15 K",0.16
same,solubility (mole fraction),"in methanol, 293.15 K",0.168
same,solubility (mole fraction),"in methanol, 298.15 K",0.175
same,solubility (mole fraction),"in methanol, 303.15 K",0.183
same,solubility (mole fraction),"in methanol, 308.15 K",0.189
same,solubility (mole fraction),"in methanol, 313.15 K",0.196
same,solubility (mole fraction),"in methanol, 318.15 K",0.202
same,solubility (mole fraction),"in methanol, 323.15 K",0.207
same,solubility (mole fraction),"in n-butanol, 278.15 K",0.0148
same,solubility (mole fraction),"in n-butanol, 283.15 K",0.0187
same,solubility (mole fraction),"in n-butanol, 288.15 K",0.0242
same,solubility (mole fraction),"in n-butanol, 293.15 K",0.0316
same,solubility (mole fraction),"in n-butanol, 298.15 K",0.0405
same,solubility (mole fraction),"in n-butanol, 303.15 K",0.0508
same,solubility (mole fraction),"in n-butanol, 308.15 K",0.0628
same,solubility (mole fraction),"in n-butanol, 313.15 K",0.0765
same,solubility (mole fraction),"in n-butanol, 318.15 K",0.091
same,solubility (mole fraction),"in n-butanol, 323.15 K",0.105
same,solubility (mole fraction),"in n-heptanol, 278.15 K",0.0101
same,solubility (mole fraction),"in n-heptanol, 283.15 K",0.0124
same,solubility (mole fraction),"in n-heptanol, 288.15 K",0.0151
same,solubility (mole fraction),"in n-heptanol, 293.15 K",0.0184
same,solubility (mole fraction),"in n-heptanol, 298.15 K",0.0225
same,solubility (mole fraction),"in n-heptanol, 303.15 K",0.0274
same,solubility (mole fraction),"in n-heptanol, 308.15 K",0.0333
same,solubility (mole fraction),"in n-heptanol, 313.15 K",0.0402
same,solubility (mole fraction),"in n-heptanol, 318.15 K",0.0484
same,solubility (mole fraction),"in n-heptanol, 323.15 K",0.0581
same,solubility (mole fraction),"in n-hexanol, 278.15 K",0.0116
same,solubility (mole fraction),"in n-hexanol, 283.15 K",0.0145
same,solubility (mole fraction),"in n-hexanol, 288.15 K",0.0176
same,solubility (mole fraction),"in n-hexanol, 293.15 K",0.0217
same,solubility (mole fraction),"in n-hexanol, 298.15 K",0.027
same,solubility (mole fraction),"in n-hexanol, 303.15 K",0.0332
same,solubility (mole fraction),"in n-hexanol, 308.15 K",0.0407
same,solubility (mole fraction),"in n-hexanol, 313.15 K",0.0492
same,solubility (mole fraction),"in n-hexanol, 318.15 K",0.0595
same,solubility (mole fraction),"in n-hexanol, 323.15 K",0.0712
same,solubility (mole fraction),"in n-octanol, 278.15 K",0.00215
same,solubility (mole fraction),"in n-octanol, 283.15 K",0.00267
same,solubility (mole fraction),"in n-octanol, 288.15 K",0.00322
same,solubility (mole fraction),"in n-octanol, 293.15 K",0.00388
same,solubility (mole fraction),"in n-octanol, 298.15 K",0.00471
same,solubility (mole fraction),"in n-octanol, 303.15 K",0.00568
same,solubility (mole fraction),"in n-octanol, 308.15 K",0.00688
same,solubility (mole fraction),"in n-octanol, 313.15 K",0.00824
same,solubility (mole fraction),"in n-octanol, 318.15 K",0.00991
same,solubility (mole fraction),"in n-octanol, 323.15 K",0.012
same,solubility (mole fraction),"in n-pentanol, 278.15 K",0.0127
same,solubility (mole fraction),"in n-pentanol, 283.15 K",0.0162
same,solubility (mole fraction),"in n-pentanol, 288.15 K",0.02
same,solubility (mole fraction),"in n-pentanol, 293.15 K",0.025
same,solubility (mole fraction),"in n-pentanol, 298.15 K",0.0321
same,solubility (mole fraction),"in n-pentanol, 303.15 K",0.04
same,solubility (mole fraction),"in n-pentanol, 308.15 K",0.0497
same,solubility (mole fraction),"in n-pentanol, 313.15 K",0.0613
same,solubility (mole fraction),"in n-pentanol, 318.15 K",0.0743
same,solubility (mole fraction),"in n-pentanol, 323.15 K",0.0887
same,solubility (mole fraction),"in n-propanol, 278.15 K",0.0218
same,solubility (mole fraction),"in n-propanol, 283.15 K",0.028
same,solubility (mole fraction),"in n-propanol, 288.15 K",0.0357
same,solubility (mole fraction),"in n-propanol, 293.15 K",0.0453
same,solubility (mole fraction),"in n-propanol, 298.15 K",0.0572
same,solubility (mole fraction),"in n-propanol, 303.15 K",0.0708
same,solubility (mole fraction),"in n-propanol, 308.15 K",0.0855
same,solubility (mole fraction),"in n-propanol, 313.15 K",0.101
same,solubility (mole fraction),"in n-propanol, 318.15 K",0.117
same,solubility (mole fraction),"in n-propanol, 323.15 K",0.131
